In brackets after ≈: the same amount, converted by molar mass. Read-outs that look alike come from different tables or passages of the source.
How the values were obtained:
[1] = cited from earlier work
physchem = conditions: for solubility: organic solvent or mixture
Source text: In one or more embodiments, the foamable composition includes a potent solvent, in addition to or in place of one of the hydrophobic solvents, polar solvents or emollients of the composition. A potent solvent is a solvent other than mineral oil that solubilizes a specific active agent substantially better than a hydrocarbon solvent such as mineral oil or petrolatum.
In one or more embodiments, the composition includes at least one active agent in a therapeutically effective concentration; and at least one potent solvent in a sufficient amount to substantially solubilize the at least one active agent in the composition. […] In one or more embodiments, the concentration of the at least one potent solvent is more than about 40% of the at least one solvent of the composition; or even more than about 60%.

Row | Solubility in dimethyl isosorbide (physchem) | Solubility in glycofurol (physchem) | Solubility in mineral oil (physchem) [%] | Compound | further results
1 |  |  |  | C=C1/C(=C\C=C2/CCC[C@]3(C)[C@@H]([C@H](C)/C=C/[C@@H](O)C4CC4)CC[C@@H]23)C[C@@H](O)C[C@@H]1O [calcipotriol] | solubility in water [1]: 0.6 µg/mL (≈ 0.00145 mM)
2 | more than 1% | more than 1% | < 0.01 | C/C(=C\C(=O)OCCCCCCCCC(=O)O)C[C@@H]1OC[C@H](C[C@@H]2O[C@H]2[C@@H](C)[C@H](C)O)[C@@H](O)[C@H]1O [Mupirocin] | Solubility in polyethylene glycol 400 (PEG 400) (physchem): more than 1%; Solubility in propylene glycol (physchem): more than 1%
3 |  | more than 1% | < 0.01 | CCCCC(=O)O[C@]1(C(=O)CO)[C@@H](C)C[C@H]2[C@@H]3CCC4=CC(=O)C=C[C@]4(C)[C@@]3(F)[C@@H](O)C[C@@]21C [Betamethasone valerate] | solubility in water ([1]; in words): practically insoluble
4 | more than 1% |  | < 0.01 | Cc1ncc([N+](=O)[O-])n1CCO [Metronidazole] | 
5 | more than 1% | more than 1% | < 0.01 | CC(=O)N1CCN(c2ccc(OCC3COC(Cn4ccnc4)(c4ccc(Cl)cc4Cl)O3)cc2)CC1 (stereo not drawn) [Ketoconazole] | Solubility in propylene glycol (physchem): more than 1%
6 |  |  |  | CCC(=O)O[C@]1(C(=O)CCl)[C@@H](C)C[C@H]2[C@@H]3CCC4=CC(=O)C=C[C@]4(C)[C@@]3(F)[C@@H](O)C[C@@]21C [clobestol proprionate] | degree of solubility in water or petrolatum or the composition ([1]; in words): practically insoluble
7 |  |  | < 0.001 | CC(=O)[C@H]1CC[C@H]2[C@@H]3CCC4=CC(=O)CC[C@]4(C)[C@H]3CC[C@]12C [Progesterone] | solubility (physchem; Solubility in PEG 400): 15300 µg/mL (≈ 48.7 mM)
8 |  | more than 1% | < 0.01 | CCCC(=O)O[C@]1(C(=O)CO)CC[C@H]2[C@@H]3CCC4=CC(=O)CC[C@]4(C)[C@H]3[C@@H](O)C[C@@]21C [Hydrocortisone butyrate] | 
9 |  |  |  | C=CC[C@@H]1/C=C(\C)C[C@H](C)C[C@H](OC)[C@H]2O[C@@](O)(C(=O)C(=O)N3CCCC[C@H]3C(=O)O[C@H](/C(C)=C/[C@@H]3CC[C@@H](O)[C@H](OC)C3)[C@H](C)[C@@H](O)CC1=O)[C@H](C)C[C@@H]2OC [tacrolimus] | solubility in water ([1]; in words): insoluble
10 |  |  | < 0.001 | Cc1cnc(NC(=O)C2=C(O)c3ccccc3S(=O)(=O)N2C)s1 [Meloxicam] | solubility (physchem; Solubility in PEG 400): 3700 µg/mL (≈ 10.5 mM); solubility (physchem; Solubility in propylene glycol): 300 µg/mL (≈ 0.854 mM)
